The target of one experiment is TgCKIα (Toxoplasma gondii, UniProt Q6QNM1). The experiment can be described thus: Casein kinase assay, TgCKIα (recombinant FLAGTgCKIα or partially purified native). Type of experiment: biochemical. Also noted: Km(app), native TgCKIα; other: substrate titration, 2 μM ATP; IC50, nativeTgCKIα; other: partially purified native enzyme from Toxoplasma tachyzoites; sensitivity of native TgCKIα phosphopeptide kinase activity (HiTrapQ fractions 5-9); other: 0.2 μM hymenialdisine or 1. To be noted: 0.2 μM hymenialdisine or 1 μM purvalanol B. The protocol:
Protein kinase assays—Casein kinase activity was assayed essentially as described (Donald, R. G. K. et al., 2002, supra) using 96-well phosphocellulose plates (MAPH-NOB, Millipore; Billerica, Mass.) to capture ^33P-phosphorylated peptide or casein substrates. Kinase reactions were carried out in 40 μl volumes containing 25 mM Hepes, pH 7.4, 10 mM MgCl2, 20 mM β-glycerophosphate, 1 mM DTT, 250 μM substrate, 1 mg/mL BSA, 2 μM ATP, and 0.01 μM [γ-^33P]ATP (Perkin-Elmer, 3000 Ci/mmol). […] Casein (5% solution), partially dephosphorylated α-casein and β-casein were obtained from Sigma.
A variety of commercially available peptide substrates were evaluated. From Calbiochem (San Diego, Calif.): CKI substrate (RRKDLHDDEEDEAMSITA; SEQ ID NO:13); CKII substrate (RRADDSDDDDD; SEQ ID NO:14); Syntide-2 substrate (PLARTLSVAGLPGKK; SEQ ID NO:15); CaM kinase II substrate (281-291) (MHKNETVECLK; SEQ ID NO:16). From Promega: CKI substrate (DDDEESITRR; SEQ ID NO:17) and kemptide (LRRASLG; SEQ ID NO:18). From New England Biolabs (Beverly, Mass.): CKI phosphopeptide substrate (KRRRALS(p)VASLPGL; SEQ ID NO:19), and CKII substrate (RRREEETEEE; SEQ ID NO:20). PKG assays were performed with kemptide as substrate and 10 μM cGMP. CDPK was assayed with Syntide-2 substrate and in the presence of 100 μM CaCl2.
Purification of recombinant CKI enzymes—E. coli strain BL21 Origami™ (Novagen) was transformed with FLAGTgCKIα and FLAGTgCKIβ expression vectors, and colonies were expanded into 250 mL LB cultures grown at 37° C. Expression was induced with 1 mM IPTG once cultures had reached an OD600nm of 0.3-0.5, and the transformed bacteria were harvested 4-6 hours later. Cell pellets were resuspended in 15 mL of lysis buffer containing protease inhibitors and lysates prepared as described by the supplier (Bugbuster™ reagents, Novagen). The concentration of NaCl in the lysate was adjusted to 0.5 M, and 0.5 mL of FLAG-agarose beads were added (Sigma). The mixture was allowed to rock in a Nutator mixer (Becton-Dickinson; San Jose, Calif.) for 2 hours at 4° C. The slurry was then poured into an empty column and the matrix washed with 50 mL of wash buffer (50 mM Tris-HCl, pH 7.4, 0.5M NaCl, 10% glycerol, 1 mM DTT, 1 mM EDTA). […] Protein was measured with a micro-BCA reagent (Pierce) following a TCA-sodium deoxycholate step to remove residual FLAG peptide (Brown et al., 1989, Anal. Biochem. 180:136-139). […]
Preparations of FLAGTgCKIα and FLAGTgCKIβ were purified further on a SMART system FPLC 0.1 mL MonoQ anion exchange column (Pharmacia; New York, N.Y.) equilibrated in buffer A (50 mM Hepes, pH 7.4, 10% glycerol, 1 mM DTT) at room temperature. […] A linear salt gradient was applied (0-500 mM in 3 mL at 100 μl/min) and 100 μl fractions were collected and analyzed by SDS-PAGE and for CKI activity. […]

A further experiment deals with T. gondii. The experiment can be described thus: Parasite growth inhibition, modified [3H]-uracil uptake assay in infected HFF cell monolayers. Type of experiment: cell-based, Toxoplasma gondii. To be noted: Toxoplasma gondii; uracil uptake assay, infected HFF cell monolayers; read-out: IC50. The text has this: Host cells and parasite cultures—RH strain or RH ΔHXGPRT strain tachyzoites of T. gondii were maintained by serial passage in confluent monolayers of human foreskin fibroblasts (“HFF”) as described (Roos, D. S. et al., 1994, Methods Cell Biol. 45:27-63). A modified [^3H]-uracil uptake assay (Pfefferkorn, E. R. and Pfefferkorn, L. C., 1977, J. Protozool. 24:449-453) adapted for use in 96-well scintillation plates (Cytostar-T, Amersham; Piscataway, N.J.) was used to measure parasite growth inhibition. Each well, previously seeded with HFF cells, was inoculated with T. gondii tachyzoites (2×10^4) in 200 μl of growth media containing 2 μCi [5,6]-^3H-uracil (Perkin-Elmer NEN; Boston, Mass.) and serially diluted compound. Following incubation at 37° C. for 36-48 hours, tritium-incorporation into host cell monolayers was directly counted in a microplate scintillation counter (MicroBeta, PerkinElmer-Wallac).
The only other CDK inhibitor with sub-μM activity against T. gondii was indirubin-3′-monoxime, which gave an IC50 value of 500 nM.

Structures are written as SMILES.

TgCKIα, sequence (Q6QNM1 whole entry, looked up): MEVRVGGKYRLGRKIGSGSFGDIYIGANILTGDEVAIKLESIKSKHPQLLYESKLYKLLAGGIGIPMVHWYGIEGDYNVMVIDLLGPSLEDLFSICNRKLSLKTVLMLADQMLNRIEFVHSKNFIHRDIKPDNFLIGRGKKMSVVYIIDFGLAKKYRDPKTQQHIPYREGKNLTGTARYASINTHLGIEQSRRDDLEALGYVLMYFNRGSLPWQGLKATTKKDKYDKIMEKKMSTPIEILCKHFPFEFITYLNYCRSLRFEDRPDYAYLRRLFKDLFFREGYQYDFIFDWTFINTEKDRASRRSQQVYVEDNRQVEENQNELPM

For the compound `CC(C)[C@H](CO)Nc1nc(Nc2ccc(C(=O)O)c(Cl)c2)c2ncn(C(C)C)c2n1` [purvalanol B], at TgCKIα, the “sensitivity of native TgCKIα phosphopeptide kinase activity (HiTrapQ fractions 5-9)” value is reported as “sensitive”. The IC50 (commonly the concentration that gives 50% inhibition) in the experiment on T. gondii came out at 0.26 µM.

The values above are taken from patent US7671181B2, “Polynucleotides encoding coccidian parasite casein kinase I, a chemotherapeutic target for antiprotozoal agents” (Merck Sharp & Dohme Corp., priority 2004, dated 2010).
